≈ marks a conversion by molar mass, not a printed value.
Assays:
APAE001 (ATCC27853) = test: MIC broth microdilution, APAE001; type: cell-based, P. aeruginosa; conditions: for MIC: Pseudomonas aeruginosa, ATCC27853, read-out: MIC APAE001, APAE001 is ATCC27853; for MIC APAE001: APAE001 is ATCC27853
How it was run: (§1)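 CLSI-guided microdilution: bacteria passaged overnight at 35° C. on Mueller-Hinton agar, tested in cation-adjusted broth at a final 3×10^5–7×10^5 CFU/mL across 2-fold drug dilutions, read after 18-24 h at 35° C.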

[1] = test system: APAE006 in the presence of 8 micrograms per milliliter of polymyxin B nonapeptide; type: cell-based, P. aeruginosa; conditions: in the presence of 8 micrograms per milliliter of polymyxin B nonapeptide
How it was run: (§2)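 Growth inhibition was scored by CLSI broth microdilution using cation-adjusted Mueller-Hinton broth and a final inoculum between 3×10^5 and 7×10^5 CFU/mL, incubated 18-24 hours at 35° C.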

[2] = test system: AABA1060 (clinical isolate of Acinetobacter baumannii); test: MIC broth microdilution, AABA1060; type: cell-based; conditions: for MIC: Acinetobacter baumannii, read-out: MIC AABA1060; for MIC AABA1060: clinical isolate of Acinetobacter baumannii
How it was run: as §1

[3] = test system: ASAU001 (laboratory strain of S. aureus, ATCC29213); test: MIC broth microdilution, ASAU001; type: cell-based; conditions: for MIC: Staphylococcus aureus, ATCC29213, read-out: MIC ASAU001; for MIC ASAU001: S. aureus ATCC29213
How it was run: as §1

AECO001 (ATCC25922) = test: MIC broth microdilution, AECO001; type: cell-based, E. coli; conditions: for MIC: Escherichia coli, ATCC25922, read-out: MIC AECO001; for MIC AECO001: AECO001 is ATCC25922
How it was run: as §1

[4] = test system: APAE006 (strain of P. aeruginosa in which all efflux pumps are inactivated); test: microbe, parasite or virus in culture; type: cell-based; conditions: for MIC: Pseudomonas aeruginosa, read-out: MIC APAE006, P. aeruginosa, all efflux pumps inactivated; for MIC APAE006: P. aeruginosa, all efflux pumps inactivated
How it was run: as §2

[5] = test system: AECO063 (ATCC25922 bearing an acrAB mutation); test: microbe, parasite or virus in culture; type: cell-based, E. coli; conditions: for MIC: Escherichia coli, ATCC25922, read-out: MIC AECO063; for MIC AECO063: ATCC25922 bearing an acrAB mutation
How it was run: as §1

AECO001 HSA AGP = test: MIC broth microdilution, AECO001 HSA AGP; type: cell-based, E. coli; conditions: for MIC: Escherichia coli
How it was run: as §1

Compound | MIC (APAE001 (ATCC27853)) [µg/mL] | MIC APAE006 + PMBN [1] | MIC [2] [µg/mL] | MIC [3] [µg/mL] | MIC (AECO001 (ATCC25922)) [µg/mL] | MIC [4] [µg/mL] | MIC [5] [µg/mL] | MIC (AECO001 HSA AGP) [µg/mL] | MIC APAE001 (APAE001 (ATCC27853)) | MIC AABA1060 [2] | MIC ASAU001 [3] | MIC AECO001 (AECO001 (ATCC25922)) | MIC APAE006 [4] | MIC AECO063 [5] | MIC AECO001 HSA AGP (AECO001 HSA AGP)
C[C@@H](N)[C@H](NC(=O)c1ccc(C#CC#Cc2ccccc2)cc1)C(=O)NO [Example 82-4] | 2 to 16 (≈ 5.53 to 44.3 µM) | A (MIC's of 2.0 μg/mL or less = A) | 2 to 16 (≈ 5.53 to 44.3 µM) | 2 to 16 (≈ 5.53 to 44.3 µM) | < 2 | < 2 | < 2 | 2 to 16 (≈ 5.53 to 44.3 µM) | – | – | – | – | – | – | –
C[C@@H](N)[C@H](NC(=O)c1ccc(C#CC#Cc2ccccc2F)cc1)C(=O)NO [Example 82-7] | < 2 | A (MIC's of 2.0 μg/mL or less = A) | < 2 | 2 to 16 (≈ 5.27 to 42.2 µM) | < 2 | < 2 | < 2 | 2 to 16 (≈ 5.27 to 42.2 µM) | – | – | – | – | – | – | –
N-[1-((S)-Hydroxycarbamoyl)-2-methylamino-ethyl]-4-[(E)-4-(4-morpholin-4-ylmethyl-phenyl)-but-1-en-3-ynyl]-benzamide [Example 111-4] | – | A (MIC's of 2.0 μg/mL or less = A) | – | – | – | – | – | – | B (MIC's of greater than 2.0 μg/mL to 16.0 μg/mL = B) | C (MIC's of greater than 16.0 μg/mL to 64.0 μg/mL = C) | D (MIC's of greater than 64.0 μg/mL = D) | A (MIC's of 2.0 μg/mL or less = A) | A (MIC's of 2.0 μg/mL or less = A) | A (MIC's of 2.0 μg/mL or less = A) | C (MIC's of greater than 16.0 μg/mL to 64.0 μg/mL = C)
O=C(N[C@H](C(=O)NO)c1ccccc1)c1ccc(C#Cc2ccc(CN3CCOCC3)cc2)cc1 [Example 66-5, N—((S)-hydroxycarbamoyl-phenyl-methyl)-4-(4-morpholin-4-ylmethyl-phenylethynyl)-benzamide] | 2 to 16 (≈ 4.26 to 34.1 µM) | A (MIC's of 2.0 μg/mL or less = A) | 2 to 16 (≈ 4.26 to 34.1 µM) | > 64 | < 2 | < 2 | < 2 | 2 to 16 (≈ 4.26 to 34.1 µM) | – | – | – | – | – | – | –
C[C@@H](N)[C@H](NC(=O)c1ccc(C#Cc2ccc(CNCc3nccn3C)cc2)cc1)C(=O)NO [Example 119-3] | 2 to 16 (≈ 4.34 to 34.7 µM) | A (MIC's of 2.0 μg/mL or less = A) | 16 to 64 (≈ 34.7 to 139 µM) | > 64 | 2 to 16 (≈ 4.34 to 34.7 µM) | < 2 | < 2 | 2 to 16 (≈ 4.34 to 34.7 µM) | – | – | – | – | – | – | –
O=CN(O)CCNC(=O)c1ccc(C#Cc2ccc(CN3CCOCC3)cc2)cc1 [Example 127-1, N-[2-(Formyl-hydroxyamino)-ethyl]-4-(4-morpholin-4-ylmethyl-phenylethynyl)-benzamide] | > 64 | C (MIC's of greater than 16.0 μg/mL to 64.0 μg/mL = C) | > 64 | > 64 | 16 to 64 (≈ 39.3 to 157 µM) | 16 to 64 (≈ 39.3 to 157 µM) | 2 to 16 (≈ 4.91 to 39.3 µM) | 16 to 64 (≈ 39.3 to 157 µM) | – | – | – | – | – | – | –
CC(C)(O)[C@H](NC(=O)c1ccc(/C=C/C#Cc2ccc(CNC3CC3)cc2)cc1)C(=O)NO [Example 113-5] | < 2 | A (MIC's of 2.0 μg/mL or less = A) | < 2 | 16 to 64 (≈ 35.8 to 143 µM) | < 2 | < 2 | < 2 | < 2 | – | – | – | – | – | – | –
C[C@@H](O)[C@H](NC(=O)c1ccc(C#CC#Cc2ccc(CO)cc2)cc1)C(=O)NO [Example 82-14] | < 2 | A (MIC's of 2.0 μg/mL or less = A) | < 2 | 16 to 64 (≈ 40.8 to 163 µM) | < 2 | < 2 | < 2 | 16 to 64 (≈ 40.8 to 163 µM) | – | – | – | – | – | – | –
3-Amino-N-hydroxy-3-methyl-2-[3-(4-morpholin-4-ylmethyl-phenyl)-propynoylamino]-butyramide [Example 129-1] | – | A (MIC's of 2.0 μg/mL or less = A) | – | – | – | – | – | – | A (MIC's of 2.0 μg/mL or less = A) | B (MIC's of greater than 2.0 μg/mL to 16.0 μg/mL = B) | D (MIC's of greater than 64.0 μg/mL = D) | A (MIC's of 2.0 μg/mL or less = A) | A (MIC's of 2.0 μg/mL or less = A) | A (MIC's of 2.0 μg/mL or less = A) | B (MIC's of greater than 2.0 μg/mL to 16.0 μg/mL = B)
O=C(CNC1CC1)NC[C@H](NC(=O)c1ccc(C#CC#Cc2ccccc2)cc1)C(=O)NO [Example 85-1, N—[(S)-2-(2-Cyclopropylamino-acetylamino)-1-hydroxycarbamoyl-ethyl]-4-(4-phenyl-buta-1,3-diynyl)-benzamide] | 2 to 16 (≈ 4.5 to 36 µM) | A (MIC's of 2.0 μg/mL or less = A) | 16 to 64 (≈ 36 to 144 µM) | 16 to 64 (≈ 36 to 144 µM) | < 2 | < 2 | < 2 | 2 to 16 (≈ 4.5 to 36 µM) | – | – | – | – | – | – | –

Reference: patent US9617256B2 (priority 2007, dated 2017)
